In PubChem BioAssay (NCI):
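Briefly, cells in 96-well plates were exposed to five compound concentrations for 48 h, and endpoints were estimated by linear interpolation. Definition used: TGI = concentration required for complete inhibition of growth.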

Tests used:
Assay in all cases: NCI tumour cell line growth inhibition, 48 h
CCRF-CEM leukemia = test system: CCRF-CEM leukemia
DU-145 prostate = test system: DU-145 prostate
HCT-15 colon = test system: HCT-15 colon
OVCAR-3 ovarian = test system: OVCAR-3 ovarian
OVCAR-8 ovarian = test system: OVCAR-8 ovarian
SK-MEL-28 melanoma = test system: SK-MEL-28 melanoma
SN12C renal = test system: SN12C renal
TK-10 renal = test system: TK-10 renal
OVCAR-4 ovarian = test system: OVCAR-4 ovarian
RXF 393 renal = test system: RXF 393 renal

Row | Compound | TGI (CCRF-CEM leukemia) | TGI (DU-145 prostate) | TGI (HCT-15 colon) | TGI (OVCAR-3 ovarian) | TGI (OVCAR-8 ovarian) | TGI (SK-MEL-28 melanoma) | TGI (SN12C renal) | TGI (TK-10 renal) | TGI (OVCAR-4 ovarian) | TGI (RXF 393 renal)
1 | Cc1ccc(S(=O)(=O)N/N=C2/CC3CCC4CC2CC34)cc1 (stereo not drawn) | > 100 µM | > 100 µM | > 100 µM | > 100 µM | > 100 µM | > 100 µM | > 100 µM | > 100 µM | – | –
2 | Cc1nc2[nH]ncn2c(=O)c1CCO | > 10 µM | > 10 µM | > 10 µM | – | > 10 µM | 7.74 µM | > 10 µM | > 10 µM | > 10 µM | > 10 µM
3 | C=CCOc1ccccc1C1(O)c2ccccc2C2=NCCCN21 (stereo not drawn) | > 100 µM | > 100 µM | > 100 µM | 59.7 µM | 34.6 µM | 52.2 µM | > 100 µM | > 100 µM | > 100 µM | –
4 | COc1ccc(C2C3CCCC(C3=O)C(c3ccc(OC)cc3)N2N=O)cc1 (stereo not drawn) | > 70.7 µM | – | > 100 µM | 20 µM | > 100 µM | > 100 µM | 39.2 µM | – | 45 µM | 41.1 µM
5 | NC(=Nc1cccc(Cl)c1)c1ccccc1N | – | > 100 µM | > 100 µM | > 100 µM | > 100 µM | > 100 µM | – | > 100 µM | > 100 µM | > 100 µM
6 | COc1ccccc1NCc1cccc2c(=O)c3ccc(Cl)cc3oc12 | > 100 µM | – | > 100 µM | > 100 µM | > 100 µM | > 100 µM | > 100 µM | > 100 µM | > 100 µM | –
7 | O=C(Nc1sccc1S(=O)(=O)c1ccccc1)c1ccccc1 | – | > 100 µM | > 100 µM | > 100 µM | > 100 µM | > 100 µM | > 100 µM | > 100 µM | > 100 µM | –
8 | OC12c3ccccc3C3CCC4(OCCO4)C3C1c1ccccc12 (stereo not drawn) | > 100 µM | – | > 100 µM | > 100 µM | > 100 µM | > 100 µM | > 100 µM | > 100 µM | > 100 µM | > 100 µM
9 | Cc1cc(O)c(/C=N/C(=S)Nc2ccccc2)c(=O)o1 | > 100 µM | > 100 µM | > 100 µM | > 100 µM | > 100 µM | – | > 100 µM | > 100 µM | > 100 µM | > 100 µM
10 | COc1ccc2[nH]c3c(C)cc([N+](=O)[O-])c(C)c3c2c1 | 56.4 µM | – | > 100 µM | > 100 µM | 79.9 µM | 92.2 µM | > 100 µM | 76.5 µM | > 100 µM | 41.9 µM
11 | CC1(C)CCCCCC(C)(CCCO)C1=O (stereo not drawn) | > 100 µM | > 100 µM | > 100 µM | > 100 µM | > 100 µM | > 100 µM | > 100 µM | – | > 100 µM | > 100 µM
12 | COc1cccc2cc(C(C)=O)c(=O)oc12 | > 100 µM | > 100 µM | – | > 100 µM | > 100 µM | > 100 µM | > 100 µM | > 100 µM | > 100 µM | > 100 µM
13 | COC(=O)/C=C(\S/C=C(/c1ccccc1)N1CCn2c(C(=O)c3ccccc3)c(C(=O)OC)c(C(=O)OC)c21)C(=O)OC | 4.2 µM | – | 6.7 µM | 2.87 µM | 3.21 µM | – | > 10 µM | 5.61 µM | 6.57 µM | 4.67 µM
14 | Cc1ccc(O)c(C2=CC(c3cccc(Br)c3)SC(N)=N2)c1 (stereo not drawn) | 81.7 µM | > 100 µM | 32.8 µM | > 100 µM | > 100 µM | – | 40.7 µM | 46.1 µM | > 100 µM | 47.1 µM
15 | CCCN1C(=O)/C(=C\c2ccc(OC)c(OC)c2)SC1=Nc1ccccc1 | > 100 µM | – | > 100 µM | > 100 µM | > 100 µM | > 100 µM | > 100 µM | 74.1 µM | > 100 µM | –
16 | CCOC(=O)CN1CC(C2=C(O)CN(CC(=O)OCC)C2=O)=CC1=O | > 100 µM | > 100 µM | > 100 µM | > 100 µM | > 100 µM | > 100 µM | > 100 µM | > 100 µM | > 100 µM | –
17 | CCCC1(CCC)c2cc(/C=N\O)ccc2-c2ccc(-c3ccc(C(C)(C)C)cc3)cc21 | 68.8 µM | > 100 µM | > 100 µM | 55 µM | > 100 µM | 92.6 µM | 53.5 µM | > 100 µM | > 100 µM | –
18 | Cc1cccc(C)c1Nc1nc(C)c(C(=O)CC(=O)C(=O)Nc2c(C(C)C)cccc2C(C)C)s1 | – | > 100 µM | > 100 µM | > 100 µM | > 100 µM | > 100 µM | > 100 µM | > 100 µM | > 100 µM | > 100 µM
19 | N#CCN(CC#N)C1CC=CCC1N(CC#N)CC#N (stereo not drawn) | > 100 µM | > 100 µM | > 100 µM | > 100 µM | > 100 µM | – | > 100 µM | > 100 µM | > 100 µM | > 100 µM
20 | c1ccc2c(c1)ccn1ccc3c4ccccc4nc-3c21 | 1.43 µM | 1.72 µM | – | 2.92 µM | 1.78 µM | 1.8 µM | 2.1 µM | 4.34 µM | 1.75 µM | 2.39 µM
21 | CCN(CC)c1ccc2cc(C(=O)Nc3ccc(C)cc3)c(=N)oc2c1 | > 100 µM | > 100 µM | > 100 µM | > 100 µM | > 100 µM | > 100 µM | > 100 µM | – | > 100 µM | > 100 µM
22 | COc1ccc(C(=O)N/N=C/c2c(C)n(C)n(-c3ccccc3)c2=O)cc1 | > 100 µM | – | > 100 µM | > 100 µM | > 100 µM | > 100 µM | > 100 µM | > 100 µM | > 100 µM | > 100 µM
23 | CC(CN(C)C)C(=O)c1ccccc1 (stereo not drawn) | 27.2 µM | – | 33.4 µM | 97.8 µM | > 91.2 µM | > 56.6 µM | 33.8 µM | > 100 µM | > 55.5 µM | > 54.2 µM
24 | CCn1c2c(c3ccccc31)C(c1ccccc1)CC1C(=O)N(c3ccccc3)C(=O)C21 (stereo not drawn) | > 100 µM | – | > 100 µM | > 100 µM | > 100 µM | > 100 µM | > 100 µM | > 100 µM | > 100 µM | –
